The results in this text go back to patent US20100104509A1, “HUMAN ANTIBODIES THAT BIND CD19 AND USES THEREOF” (Medarex, Inc., priority 2006, published 2010).

For this test, the system named is B-cells (CD22) in human whole blood. Briefly: Whole blood B-cell depletion assay. In kind it is cell-based. To be noted: overnight 37° C.; for % Change: B-cell depletion vs non-treated group. On the procedure: To determine if the anti-CD19 antibodies were capable of depleting B-cells, a whole blood B-cell depletion assay was set up.
Human whole blood was purchased from AllCells Inc. (Berkeley, Calif.) and delivered the same day at room temperature. Two ml of whole blood was incubated in the absence or presence of […] of the indicated antibodies, or PBS as the untreated group. The blood-antibody mixture was incubated overnight at 37° C. with 5% CO2. On the day of the experiment, the blood was lysed twice with RBC lysis buffer at 1:10 ratio by incubating for 10 minutes followed by centrifugation. After the second spin, the cell pellets were washed once with FACS buffer (PBS plus Calcium and Magnesium with 2% FBS and 20% versene), and followed by FAGS staining with anti-CD3 antibody (Becton Dickinson) as the T-Cell makers and anti-CD22 antibody (Becton Dickinson) as a B-cell makers using standard Flow cytometry protocols. Cells were incubated on ice for 20 min prior to the final washes and resuspended in […] propidium iodide solution (Sigma) in FACS buffer. Data was collected by flow cytometry using a FASCalibur system and CellQuest software by Becton Dickinson, and analyzed via FlowJo software using lymphocyte size gating. Percent change was calculated by determining the % positive B-cells in the non-treated group minus the % positive B-cells in the antibody treated group divided by % positive B-cells in the non treated group times 100. From a healthy blood donor, 8.7% B-cells remained in the blood following an overnight incubation (no antibody). Incubating whole blood with […] of positive control Rituxan led to a 46% depletion in the number of B-cells when compared to the untreated, no antibody group.

Turning to “Rituxan: positive control in the whole blood B-cell depletion assay [reference compound]”, the “% Change” value was 46%. Moreover, the “% Change” value (listed as Rituxan ®) amounted to 46.3%. In addition, the “% Positive (CD22)” value (1-30 mg/ml antibody) was 4.7%.
